This note sets out measurements from publication PMC10135378, “Synthesis of Novel N-Heterocyclic Carbene-Ruthenium (II) Complexes, “Precious” Tools with Antibacterial, Anticancer and Antioxidant Properties” (Antibiotics, 2023).

The structures appear in SMILES notation. Where only a bound is given, the exact number is not on record here.

Data set [1] in a line: Conductivity measurements (hydrolytic stability). To be noted: DMSO/H2O 90/10, solutions about 10^−3 M, room temperature. The format is physicochemical. As to the method:
The proposed structures and hydrolytic stability were supported by conductivity measurements (solutions about 10^−3 M); in fact, the conductance values for the Ru compounds I, IV, V, and VI determined in DMSO/H2O 90/10 are substantially independent of the concentration, which is close to zero. […] This was attributed to the presence of a small amount of sodium iodide in the sample (about 10 mol%).
The NMR spectra were recorded on a Bruker AM 250 spectrometer (250 MHz for ^1H; 62.5 MHz for ^13C), a Bruker AM 300 spectrometer (300 MHz for ^1H; 75 MHz for ^13C), and a Bruker AVANCE 400 spectrometer (400 MHz for ^1H; 100 MHz for ^13C; 161.97 MHz for ^31P; 376 MHz for ^19F). NMR samples were prepared by solubilizing about 15 mg of compound in 0.5 mL of deuterated solvent. The ^1H and ^13C NMR chemical shifts are referenced to SiMe4 (δ = 0 ppm) using the residual proton impurities of the deuterated solvents as internal standards. ^1H NMR spectra are referenced using the residual solvent peak δ 2.50 for DMSO-d6 and δ 7.27 for CDCl3. ^13C NMR spectra are referenced using the residual solvent peak at δ 39.51 for DMSO-d6 and δ 77.23 for CDCl3. Multiplicities are abbreviated as follows: singlet (s), doublet (d), triplet (t), multiplet (m), doublet of doublets (dd), broad (br), and overlapped (o). Elemental analysis was conducted using a PERKIN-Elmer 240-C analyzer. ESI-MS measurements were performed on a Waters Quattro Micro triple quadrupole mass spectrometer, equipped with an electrospray ion source. MALDI-MS mass spectra were achieved by a Bruker SolariX XR Fourier transform ion cyclotron resonance mass spectrometer (Bruker Daltonik GmbH, Bremen, Germany) with a 7 T refrigerated actively shielded superconducting magnet (Bruker Biospin, Wissembourg, France). MALDI ion source (Bruker Daltonik GmbH, Bremen, Germany) was used in the samples in positive ion mode. The mass range was set to m/z 200–3000. The laser power was 28% and 22 laser shots were utilized for each scan. The mass spectra were calibrated externally using a mix of peptide clusters in MALDI ionization positive ion mode. A linear calibration was applied. The molar conductance of the ruthenium complexes was measured at room temperature by a Metrohm 712 Conductometer using freshly prepared 10^−3 M solutions in DMSO/H2O 90/10 solvent.

Data set [2] concerns Staphylococcus aureus (ATCC 23235). In words: MIC/MBC broth dilution, S. aureus. Type of data set: cell-based. Conditions: broth dilution, 37 °C, 18 h. On the procedure:
One Gram-negative (Escherichia coli (ATCC® 25922TM)) and two Gram-positive bacterial strains (Enterococcus faecalis (ATCC® 19433TM) and Staphylococcus aureus (ATCC® 23235TM)] were used for MIC and MBC values determination, according to CLSI guidelines. MIC represents the lowest concentration of compound inhibiting the visible microbial growth and expressed as μg/mL; MBC is the lowest concentration able to kill the bacteria. Both determinations were performed by the broth dilution method. Bacteria were grown overnight in LB medium (2%), then diluted to a density of […] colony forming units (CFUs) per mL, plated in sterile 96-well microplates, obtaining about 10^5 cells/ well. Increasing concentrations of the Ru-NHC complexes (1, 10, 25, 50, 70, 100 µg/mL) were used. After incubation at 37 °C for 18 h (overnight), bacterial growth was checked at a wavelength of 600 nm using a Multiskan spectrophotometer (model Multiskan Ex Microplate; Thermo Scientific, Nyon, Switzerland) and MIC or MBC values were determined, comparing cell density with a positive control (bacterial cells grown in LB medium were added with only the vehicle, DMSO). Each experiment was carried out five times, in triplicate. Ampicillin (Sigma Aldrich A9393) was used as the control for strain sensitivity.
In general terms: In broth dilution the organism is exposed to a series of concentrations in liquid medium.

The test system of data set [3] is MCF-10A cells. In words: MTT assay, non-tumoral MCF-10A cells. Type of data set: cell-based, human. Conditions: 72 h exposure. An excerpt:
Additionally, we investigated the selectivity of all the synthesized Ru-NHC complexes on the cancer cells by studying their capability to interfere with the growth of two non-tumoral cells, namely the MCF-10A and BALB/3T3 cells.
The adopted cells (breast cancer MCF-7 and MDA-MB-231 and human mammary epithelial MCF-10A cells) were purchased from American Type Culture Collection (ATCC, Manassas, VA, USA) and cultured as indicated. The mouse embryonic fibroblast BALB/3T3 and neuroblastoma SH-SY5Y were also obtained from American Type Culture Collection (ATCC, Manassas, VA, USA) and cultured in DMEM high glucose supplemented with 100 U mL^−1 penicillin/streptomycin and 10% bovine calf serum (BCS) or 10% fetal bovine serum (FBS), respectively.
MTT assay (Sigma Aldrich (St. Louis, MO, USA)) was used for the in vitro anticancer activity evaluation, as previously reported. The Ru-NHC complexes were employed at different concentrations (0.1–1–10–25–50–100 μM) for 72 h. The IC50 values were calculated from the percent (%) of control using GraphPad Prism 9 (GraphPad Software, La Jolla, CA, USA).
(Formazan colour is commonly taken as a measure of viable cells.)

Data set [4] is described as follows: ABTS radical scavenging assay. Conditions: for IC50: 5 min, room temperature, 730 nm. An excerpt: To further analyze the Ru-NHC complexes antiradical potential, we examined their capability to interfere with the ABTS radical cation, a well-known protonated radical with a characteristic maximal absorbance at 730 nm, which diminishes with the scavenging of the radical proton. The assay measures radical scavenging by the electron donation. The outcomes in terms of ABTS% scavenging activity are reported in Figure 7 and IC50 values of Ru-NHC complexes, together with the standard Trolox, on ABTS radical are summarized in Table 3 and Table S3.
The radical scavenging properties of the Ru-NHC complexes on a 2,2′-azino-bis(3-ethylbenzothiazoline-6-sulfonate) radical cation (ABTS^•+) were calculated as described by Fazio et al., with few adjustments. Briefly, 2 mM ABTS and 70 mM potassium persulfate water solutions were mixed and incubated to obtain ABTS^•+ radical stock solution (16 h, room temperature, in the dark). ABTS solution was diluted in ethanol to obtain an absorbance of 0.70 ± 0.02 at 730 nm, prior to use. Then, 2 μL of each Ru-NHC complex at different concentrations, properly dissolved in DMSO, were mixed with 198 μL of the ABTS^•+ solution in a 48-well plate obtaining the following concentrations: 0.1, 1, 10, 50, and 100 µg/mL. The solutions were vigorously shaken and incubated (5 min, room temperature, in the dark). The ABTS scavenging activity was determined at 730 nm, using a microplate reader. The control was prepared mixing 2 μL of DMSO with 198 μL of the ABTS^•+ solution. The ABTS radical scavenging was expressed as inhibition percentages (%IABTS) of each complex compared to the control, according to the formula: %IABTS=A0−A/A0×100 where A0 is the absorbance at 730 nm of the control reaction and A is the absorbance at 730 nm in the presence of samples.
IC50 values for the Ru complexes were calculated from the %IABTS using GraphPad Prism 9 software (GraphPad Inc., San Diego, CA, USA). Trolox was employed as the positive control.

Regarding `CN1C=CN2CC(c3ccccc3)[O+](C)[Ru]([Cl])=[C]12.Cc1ccc(C(C)C)cc1.F[P-](F)(F)(F)(F)F` (stereo not shown) [RANHC-III], the conductivity in data set [1] was 6.3–25.6 μS cm^−1. In addition, the “M.I.C. S. aureus” value in data set [2] is 25 µg/mL. Moreover, the IC50 (in general, the concentration that inhibits the measured activity by half) was greater than 100 µM in data set [3] and 5.53 ± 1.1 µM in data set [4]. Further, the “ABTS IC50 fold lower than that of Trolox” value in data set [4] (IC50 ratio to Trolox) is recorded as “about 17 fold”.

`COC(Cn1ccn(C)[c]1=[Ru]([I])[I])c1ccccc1.Cc1ccc(C(C)C)cc1` (stereo not shown) [RANHC-II]: the conductivity in data set [1] is recorded as 13.1–44.2 μS cm^−1. Further, in data set [2], the “M.I.C. S. aureus” value is recorded as 25 µg/mL. Also, the IC50 in data set [3] is greater than 100 µM; in data set [4] it was 16.1 ± 0.7 µM.

`COC(Cn1ccn(C)[c]1=[Ru]1[O]C(=O)C(=O)[O]1)c1ccccc1.Cc1ccc(C(C)C)cc1` (stereo not shown) [RANHC-IV]: the conductivity result in data set [1] was “close to zero”. For the same compound, the “M.I.C. S. aureus” value in data set [2] was 25 µg/mL. Moreover, the values for the IC50 in data set [3] and in data set [4] were greater than 100 µM and 8.57 ± 1.1 µM, respectively.

Take `COC(Cn1ccn(C)[c]1=[Ru]([Cl])[Cl])c1ccccc1.Cc1ccc(C(C)C)cc1` (stereo not shown) [RANHC-I]: the conductivity entry in data set [1] is “close to zero”. Moreover, in data set [2], the “M.I.C. S. aureus” value worked out at 25 µg/mL. Besides, the IC50 was greater than 100 µM in data set [3] and 13.5 ± 0.7 µM in data set [4].

For `COC(Cn1[c](=[Ru]([Cl])[Cl])n(C)c2ccccc21)c1ccccc1.Cc1ccc(C(C)C)cc1` (stereo not shown) [RANHC-VI], the conductivity result in data set [1] was “close to zero”. Moreover, the “M.I.C. S. aureus” value in data set [2] turned out to be 25 µg/mL. Further, the values for the IC50 in data set [3] and in data set [4] were 90.7 ± 1.2 µM and 17.2 ± 1.1 µM, respectively.

As to `COC(Cn1c(Cl)c(Cl)n(C)[c]1=[Ru]([Cl])[Cl])c1ccccc1.Cc1ccc(C(C)C)cc1` (stereo not shown) [RANHC-V], the conductivity entry in data set [1] is recorded as “close to zero”. The “M.I.C. S. aureus” value in data set [2] came out at 25 µg/mL. For the same compound, the IC50 in data set [3] turned out to be 79.5 ± 1.2 µM; in data set [4] it was 11.4 ± 0.8 µM.
